Assay results: patent US20180256460A1, “STAIN-REMOVING ORAL COMPOSITION” (LOTTE CO., LTD., priority 2014, published 2018)
“Also recorded” adds a separate entry of the source.

Assays:
[1] = Stain-removing effect of saliva solutions containing chewing gum components, color difference of stained hydroxyapatite discs; conditions: for Stain-removing effect of the acidulant itself: color difference: 0.1% in saliva solution, pH 6, compared to the saliva alone (pH 7), FIG. 3A, n=5, p<0.05
Experimental: Each research volunteer was asked to masticate one tablet of salivary gum (Morita Corporation), and about 30 ml of the saliva was collected respectively. The collected saliva was all combined in one container (beaker) so that personal information could not be traced. The collected saliva was centrifuged at 2,500×g for 10 minutes, and the supernatant was used as a saliva sample for a solvent in a testing solution.
The amount of the saliva collected when masticating 2 tablets of gum for 5 minutes was 15 ml on average. The sugar alcohol or acidulant was dissolved under stirring in a weight ratio corresponding to 2 tablets of the sample chewing gum into 15 ml of the saliva sample processed with the procedure of 2. That is, to 15 ml of a saliva sample, 2.31 g (15.4%) of the sugar alcohol or 15 mg (0.1%) of the acidulant was added and dissolved. Sodium metaphosphate was dissolved under stirring in an amount needed for each testing. For pH adjustment, an aqueous solution of hydrochloric acid or sodium hydroxide was used.
3% green tea extract, 1% black tea extract, and 1% instant coffee were dissolved under stirring in mineral water at 100° C. to obtain a staining liquid (instant coffee; Ajinomoto General Foods, Inc., mineral water; Suntory Foods Limited).
Hydroxyapatite discs (10 mm×10 mm, APP-100, HOYA Corporation) the surfaces of which were uniformly polished with a P400 waterproof abrasive paper were used as human enamel models. The hydroxyapatite discs after polishing were subjected to color measurement by the method of 6. as mentioned below to obtain reference values for the discs. The hydroxyapatite discs were separately put in a 12-well plate (IWAKI&Co., Ltd.) and immersed in 2.5 ml of the saliva sample and allowed to stand still at 37° C. for 2 hours so that saliva pellicles were formed on the surface. The discs were washed with water, and immersed in 2.5 ml of the staining liquid each added in each well of a fresh 12-well plate, and moderately shook at 37° C. for 24 hours so that stains were formed. The hydroxyapatite discs after staining were subjected to color measurement by the method in 6. mentioned below to obtain measurement values after staining. Hydroxyapatite discs after staining subjected to color measurement were placed in a fresh 12-well plate, and 2.5 ml of the saliva sample, the saliva solution containing chewing gum components, or the chewing gum extract solution was dispensed in each well, then the discs were immersed for 5 minutes or 35 minutes. The immersed discs were washed with distilled water, and extra water was wiped off with paper to dry the discs, followed by color measurement.
A spectrophotometer (CM-700d, Konica Minolta, Inc.) was set upright so that the colorimetric direction was upward. Hydroxyapatite discs before the pellicle formation, after staining or after the solution treatment were allowed to stand still above the colorimetric light source, and color measurements were performed 3 times successively, and the average value was employed. Color measurements were performed on the L*axis (lightness), the a*axis (chroma: red-green axis), and the b*axis (chroma: yellow-blue axis) of the L*a*b*color space based on JIS Z 8722:2009, under the condition of SCI including reflected light. […] E*ab was calculated according to the following expressions. […]

[2] = aqueous system; cited from earlier work

O=C(O)CC(O)C(=O)O (centres unmarked) [malic acid]
Stain-removing effect of the acidulant itself: color difference [1]: a decrease in the color difference was observed

sodium metaphosphate
Stain-removing effect: color difference of stained hydroxyapatite discs ([1]; 0.066% or 0.2% in the saliva, compared to the saliva alone, FIG. 1, n=6, p<0.05): a significant difference was observed compared to the case where the discs were treated with the saliva alone; also recorded: a significant decrease in the color difference was observed
Influence of pH on stain removal: transition of the color difference ([1]; saliva with 0.1% sodium metaphosphate, pH 5 compared to pH 7, FIG. 3C, n=6, p<0.05): a significant difference in the transition of the color difference was observed

O=C(O)CC(O)(CC(=O)O)C(=O)O [citric acid]
Stain-removing effect of the acidulant itself: color difference [1]: a decrease in the color difference was observed

O=P(=O)O [metaphosphoric acid]
pKa [2]: as small as not measurable in an aqueous system
